We go through one molecule from publication PMC10590756, “Glutarate regulates T cell metabolism and anti-tumour immunity” (Nature Metabolism, 2023).

One data set concerns CD19^+ Raji cells. In words: In vitro cytotoxicity and IFNγ secretion of CD19 CAR T cells. It is filed as cell-based, human. To be noted: T cells cultured 7 days with 500 µM DEG. The protocol: Secreted IFNγ levels of cultured cells were determined using an ELISA. Assays were performed with uncoated ELISA kits (catalogue no. 88-7316, Thermo Fisher Scientific), according to the manufacturer’s instructions. Absorbance was determined using a microplate reader (Sunrise, Tecan) at a wavelength of 450 nm.
Ten thousand B16F10-OVA or SKOV3 cells were seeded per well in 96-well plates and cocultured for a minimum of 14 h with varying ratios of mouse CD8^+ OT1 or human CD8^+RQR8^+ HER2 CAR T cells, respectively. T cells had been treated with or without DEG 7 days before the assay. Wells were washed twice with PBS to remove T cells and the number of remaining target cells was determined by culturing with 10 µg ml^−1 resazurin (catalogue no. R7017, Sigma-Aldrich) and measuring the fluorescence signal in a plate reader. Cytotoxicity was calculated relative to wells with no T cells added. Ten thousand Raji cells were cocultured for a minimum of 14 h with CD19 CAR T cells previously activated for 7 days and cultured with or without DEG. Cytotoxicity was assessed by flow cytometry using the ratio of live Raji cells to CountBright Absolute Counting Beads (catalogue no. C36950, Thermo Fisher Scientific). To determine specific cytotoxicity, data were normalized to the cytotoxicity of the vector-controlled transduced CD8 T cells of the respective donor.

The test system of data set [1] is 5hmC (the reaction product of TET2) in human CD8^+ T cells. As to the kind of experiment: 5hmC staining by flow cytometry. The data set is classed as cell-based. The note with it: DEG 7 days, dose-dependent. The protocol: For 5-hydroxymethylcytosine (5hmC) staining, cells were stained for surface antigens as above and then fixed and permeabilized with the Transcription Factor Buffer Set. Next cells were incubated with 4 M HCl for 10 min at room temperature. Cells were then thoroughly washed and incubated in blocking buffer (0.1% PBS-Triton X-100, 5% FCS) for 30 min at 4 °C. Cells were then incubated with primary anti-5hmC (catalogue no. 10013602, Active Motif) overnight at 4 °C and the day after with secondary antibody for 1 h at room temperature. Flow cytometry was then performed as explained above. Cells were sorted on an FACSAria III (BD Biosciences) after surface antigen staining as described above. Data were analysed using FlowJo v.10.7.2.

The test system of the next data set is human CD8^+ T cells. As to the kind of experiment: Isotope tracing of ^13C5-labelled DEG and intracellular glutarate by LC-tandem MS. It is filed as in vitro ADME. The protocol: To affirm that exogenous administration of DEG leads to increased intracellular glutarate levels, we performed isotope tracing of human CD8^+ T cells treated with ^13C5-labelled DEG.
Cells were counted to determine viable cell numbers (Fig. 1f,h,i and Extended Data Fig. g,h,k). A total of 0.5–2 × 10^6 viable cells were collected, washed with cold PBS and metabolic activity was quenched by freezing samples in dry ice and ethanol, and stored at −80 °C. Metabolites were extracted by adding 150 μl ice-cold 1:1 (vol/vol) methanol/water (containing 1 mM N-cyclohexyl-2-aminoethanesulfonic acid (CHES) as an internal standard) to the cell pellets; samples were transferred to a chilled microcentrifuge tube containing 150 μl chloroform and […] (750 μl total in 3:1:1 vol/vol methanol/water/chloroform). Samples were sonicated in a water bath for 8 min at 4 °C, and centrifuged (13,000g) for 10 min at 4 °C. The supernatant containing the extract was transferred to a new tube for evaporation using TurboVap LV (Biotage), resuspended in 3:3:1 (vol/vol/vol) methanol/water/chloroform (350 μl total) to phase-separate polar metabolites from apolar metabolites and centrifuged. The aqueous phase was transferred to a new tube for evaporation using TurboVap LV, washed with 60 μl methanol and dried again. Evaporated extracts were dissolved in 100 µl MeOH–50% water, before injection on the machine. Isotopically labelled glutarates were determined by liquid chromatography (LC)–tandem mass spectrometry (tandem MS) on a Waters ACQUITY UPLC system coupled to a Xevo-TQ-XS mass spectrometer. […] The column was subsequently washed in 75% A for 2.5 min and re-equilibrated at initial conditions for 3 min. MS analyses were performed in multiple reaction monitoring (MRM) mode, with positive electrospray ionization (ESI) from minute 0 – 1.4 and negative electrospray ionization (ESI) from minute 1.4 to minute 4.7. Positive ESI was conducted according to the following parameters: capillary potential 3 kV, source offset 30 V, cone voltage 15 V, source temperature 150 °C, desolvation temperature 600 °C, cone gas flow 150 l h^−1, desolvation gas flow, 1,000 l h^−1, nebulizer 7 bar and collision gas flow 0.17 ml min^−1. Negative ESI was operated under the same conditions but with a capillary potential set to 2 kV and a cone voltage set to 20 V. Acquisition was performed using MRM with the mass transitions and parameters illustrated in Supplementary Table 4. […]
Cells were counted to determine the viable cell numbers (Extended Data Fig. 1i,n). […]
Glutarate was determined by LC–tandem MS on a Waters ACQUITY UPLC system coupled to a Xevo-TQ-S mass spectrometer (Waters). […]

Where only a bound is given, the exact number is not on record here.

`CCOC(=O)CCCC(=O)OCC` [DEG, Diethyl glutarate]: the “cytotoxicity of CD19^+ CAR T cells against CD19^+ Raji cells” value with CD19^+ Raji cells was “increased cytotoxicity”. In the data set with CD19^+ Raji cells (coculture with Raji cells), the “interferon-γ (IFNγ) secretion of CD19^+ CAR T cells” value was “secreted more”. Besides, the 5hmC levels entry in data set [1] is on record as “decrease”. Further, the “time of conversion of DEG to glutarate intracellularly” value in the data set with human CD8^+ T cells is recorded as not above 15 min. Further, the “increase of measured intracellular glutarate concentrations” value with human CD8^+ T cells (500 µM DEG, 7 days) is reported as “approximately twofold”. Also, the “intracellular DEG” value with human CD8^+ T cells (15 min after administration of the labelled compound) is listed as “could not be detected”. Besides, in the data set with human CD8^+ T cells (^13C5-labelled DEG), the “conversion of DEG into intracellular glutarate after uptake” value is reported as “very rapidly converted into intracellular glutarate”.
